According to US12383533B2 (Frost Biologic, Inc., priority 2014, dated 2025):

Experiments:
Assay type in all cases: cell-based
[1] = system: PC3 cells; test: Cell Viability Assay (ATPlite 1step), PC3; details: Homo sapiens, PC-3, 72 hours; for percent inhibition of cell viability at 4 µM: PC3, 4 uM compound, read-out: Cell Viability % inhibition PC3 (4 uM Cpd); for percent inhibition of cell viability at 20 µM: PC3, 20 uM compound, read-out: Cell Viability % inhibition PC3 (20 uM Cpd)
Experimental: (§1) Cell Viability Assay Protocol
(§2) Cells were trypsinized, counted, and re-seeded into a 384-well tissue culture plate at 1000 cells per well in […] media. Cells were incubated at 37° C. in an atmosphere of 5% CO2 for 24 hours. Experimental compounds, initially dissolved in DMSO and diluted further in media were added to the wells and incubated for 72 hours. Cell viability was measured using the ATPlite 1step Luminescence Detection Assay system (Perkin Elmer) as described in the Assay kit instructions.
(§3) Cell Culture Lines and Media: (1) A2780 cells were cultured in RPMI media with 10% FBS and 1% antibiotics. Cells were typically split every 3-5 days at a 1:10 dilution; (2) PC3 cells were cultured in RPMI media with 10% FBS and 1% antibiotics. Cells were typically split every 3-5 days at a 1:4 dilution; (3) MCF-7 cells were grown in K-12F media with 10% FBS and 1% antibiotics. Cells were typically split every 3-5 days at a 1:10 dilution.

[2] = system: MCF-7 cells; test: Cell Viability Assay (ATPlite 1step), MCF-7; details: Homo sapiens, MCF7, 72 hours; for percent inhibition of cell viability at 4 µM: MCF-7, 4 uM compound, read-out: Cell Viability % inhibition MCF-7 (4 uM Cpd); for percent inhibition of cell viability at 20 µM: MCF-7, 20 uM compound, read-out: Cell Viability % inhibition MCF-7 (20 uM Cpd)
Experimental: as §1, §2, §3

[3] = system: A2780 cells; test: Cell Viability Assay (ATPlite 1step), A2780; details: Homo sapiens, 72 hours; for percent inhibition of cell viability at 4 µM: A2780, 4 uM compound, read-out: Cell Viability % inhibition A2780 (4 uM Cpd); for percent inhibition of cell viability at 20 µM: A2780, 20 uM compound, read-out: Cell Viability % inhibition A2780 (20 uM Cpd)
Experimental: as §1, §2, §3

| SMILES | percent inhibition of cell viability at 4 µM [1] | percent inhibition of cell viability at 20 µM [1] | percent inhibition of cell viability at 4 µM [2] | percent inhibition of cell viability at 20 µM [2] | percent inhibition of cell viability at 4 µM [3] | percent inhibition of cell viability at 20 µM [3] |
| --- | --- | --- | --- | --- | --- | --- |
| O=C(Nc1ccc(-c2ccncc2)cn1)c1cncnc1 [Compound 13, N-(3,4′-bipyridin-6-yl)pyrimidine-5-carboxamide] | 19.2% | 17.5% | 4.5% | 0.2% | 9.3% | 47.2% |
| Cc1ncc(C(=O)Nc2ccc(-c3cc(C4CC4)cc(N4CCN(C)CC4)c3)cn2)cn1 [Compound 53] | 12.3% | 67.1% | 11.3% | 39.6% | 15.1% | 74.8% |
| Cc1ncc(C(=O)Nc2ccc(-c3cc(Cl)cc(N4CCN(C)CC4)c3)c(C)n2)cn1 [Compound 48, N-{5-[3-chloro-5-(4-methylpiperazin-1-yl)phenyl]-6-methylpyridin-2-yl}-2-methylpyrimidine-5-carboxamide] | 72% | 67% | 36.5% | 47.8% | 79.2% | 88.8% |
| Nc1ncc(C(=O)Nc2ccc(-c3ccccc3)cn2)cn1 [Compound 9, 2-amino-N-(5-phenylpyridin-2-yl)pyrimidine-5-carboxamide] | 70.7% | 76.7% | 70.9% | 75.5% | 92.5% | 90.6% |
| COc1cccc(-c2ccc(NC(=O)c3cncnc3)nc2)c1 [Compound 18, N-[5-(3-methoxyphenyl)pyridin-2-yl]pyrimidine-5-carboxamide] | 66.2% | 76.5% | 58.8% | 75.4% | 88.5% | 91.5% |
| Cc1ncc(C(=O)Nc2ccc(-c3cc(N4CCN(C)CC4)cc(S(=O)(=O)C4CC4)c3)c(C)n2)cn1 [Compound 50, N-{5-[3-cyclopropylsulfonyl-5-(4-methylpiperazin-1-yl)phenyl]-6-methylpyridin-2-yl}-2-methylpyrimidine-5-carboxamide] | 39.2% | 54.7% | 10% | 40.7% | 7.3% | 62.6% |
| Cc1ncc(C(=O)Nc2ccc(-c3ccccc3)cn2)cn1 [Compound 8, 2-methyl-N-(5-phenylpyridin-2-yl)pyrimidine-5-carboxamide] | 71.6% | 71.7% | 68.7% | 74.5% | 89.8% | 90.8% |
| O=C(Nc1ccc(-c2ccoc2)cn1)c1cncnc1 [Compound 19, N-[5-(furan-3-yl)pyridin-2-yl]pyrimidine-5-carboxamide] | 62.2% | 75.2% | 56.4% | 69.6% | 83.2% | 91.8% |
| O=C(Nc1ccc(-c2ccccc2)cn1)c1cccnc1 [Compound 10, N-(5-phenylpyridin-2-yl)pyridine-3-carboxamide] | 71.8% | 87.3% | 61.4% | 86.4% | 92.7% | 95.2% |
| CNC(=O)c1cccc(-c2ccc(NC(=O)c3cncnc3)nc2)c1 [Compound 17, N-{5-[3-(methylcarbamoyl)phenyl]pyridin-2-yl}pyrimidine-5-carboxamide] | 62.8% | 81.7% | 56.3% | 75.5% | 84.5% | 91.7% |
| O=C(Nc1ccc(-c2ccsc2)cn1)c1cncnc1 [Compound 7, N-[5-(thiophen-3-yl)pyridin-2-yl]pyrimidine-5-carboxamide] | 44.1% | 41.8% |  |  | 81.3% | 90.9% |
| Cc1ccc(C(=O)Nc2ccc(-c3cccc(C4CC4)c3)cn2)cn1 [Compound 25, N-[5-(3-cyclopropylphenyl)pyridin-2-yl]-6-methylpyridine-3-carboxamide] | 50.3% | 63.4% |  |  | 70.6% | 81.1% |
| CN1CCN(c2cccc(-c3ccc(NC(=O)c4cccnc4)nc3)c2)CC1 [Compound 36, N-{5-[3-(4-methylpiperazin-1-yl)phenyl]pyridin-2-yl}pyridine-3-carboxamide] | 24.3% | 42.5% |  |  | 51.3% | 55.5% |
| O=C(Nc1ccc(-c2cccc(C3CC3)c2)cn1)c1cccnc1 [Compound 24, N-[5-(3-cyclopropylphenyl)pyridin-2-yl]pyridine-3-carboxamide] | 53.1% | 67.5% |  |  | 73.4% | 72.2% |
| O=C(Nc1ccc(-c2cccc(NC3CC3)c2)cn1)c1cccnc1 [Compound 32, N-{5-[3-(cyclopropylamino)phenyl]pyridin-2-yl}pyridine-3-carboxamide] | 57.3% | 57.6% |  |  | 71.9% | 77% |
| Cc1ccc(C(=O)Nc2ccc(-c3cccc(OC4CC4)c3)cn2)cn1 [Compound 29, N-{5-[3-(cyclopropyloxy)phenyl]pyridin-2-yl}-6-methylpyridine-3-carboxamide] | 60.5% | 69.5% |  |  | 74.4% | 83.1% |
| Cc1ncc(C(=O)Nc2ccc(-c3cc(O)cc(C4CC4)c3)cn2)cn1 [Compound 65, N-[5-(3-cyclopropyl-5-hydroxyphenyl)pyridin-2-yl]-2-methylpyrimidine-5-carboxamide] | 80.5% | 82.2% |  |  | 85.9% | 89.8% |
| O=C(Nc1ccc(-c2cccc(OC3CC3)c2)cn1)c1cccnc1 [Compound 28, N-{5-[3-(cyclopropyloxy)phenyl]pyridin-2-yl}pyridine-3-carboxamide] | 58.9% | 65.6% |  |  | 77% | 74.2% |
| O=C(Nc1ccc(-c2cccc(C3COC3)c2)cn1)c1cccnc1 [Compound 43, N-{5-[3-(oxetan-3-yl)phenyl]pyridin-2-yl}pyridine-3-carboxamide] | 75.1% | 84.5% |  |  | 82.6% | 86.7% |
| CC(C)(C)c1cccc(-c2ccc(NC(=O)c3cncnc3)nc2)c1 [Compound 46, N-[5-(3-tert-butylphenyl)pyridin-2-yl]pyrimidine-5-carboxamide] | 68.5% | 67.6% |  |  | 71.1% | 71.8% |
| NCCNc1ncc(C(=O)Nc2ccc(-c3cccc(OC4CC4)c3)cn2)cn1 [Compound 58, 2-[(2-aminoethyl)amino]-N-[5-(3-cyclopropyloxyphenyl)pyridin-2-yl]pyrimidine-5-carboxamide] | 77.7% | 93.6% |  |  | 86.6% | 91.1% |
| O=C(Nc1ccc(-c2cccc(C3CCC3)c2)cn1)c1cncnc1 [Compound 45, N-[5-(3-cyclobutylphenyl)pyridin-2-yl]pyrimidine-5-carboxamide] | 80.8% | 83.3% |  |  | 87.6% | 86.4% |
| O=C(Nc1ccc(C2CC2)cn1)c1cncnc1 [Compound 6, N-(5-cyclopropylpyridin-2-yl)pyrimidine-5-carboxamide] | 27% | 29.9% |  |  | 75.5% | 76.4% |
